Measured values from US20040198758A1, “N-heterocyclyl substituted thienyloxy-pyrimidines used as herbicides” (priority 2001, published 2004).

Experiments:
Test in all cases: greenhouse post-emergence herbicidal treatment
Format in all cases: in vivo
Settings in all cases: application rates of 0.25 or 0.125 kg/ha
Amaranthus retroflexus = system: Amaranthus retroflexus
From the text: (§1) The seeds of the test plants were sown separately for each species. For the post-emergence treatment, the test plants were first grown to a height of from 3 to 15 cm, depending on the plant habit, and only then treated with the active compounds which had been suspended or emulsified in water. The test plants were for this purpose either sown directly and grown in the same containers., or they were first grown separately as seedlings and transplanted into the test containers a few days prior to treatment. The application rate for the post-emergence treatment was 0.25 or 0.125 kg of a.s. (active substance)/ha. Depending on the species, the plants were kept at 10-25° C. or 20-35° C. The test period extended over 2 to 4 weeks. During this time, the plants were tended, and their response to the individual treatments was evaluated. Evaluation was carried out using a scale from 0 to 100. 100 means no emergence of the plants, or complete destruction of at least the above-ground parts and 0 means no damage, or normal course of growth. The plants used in the greenhouse experiments were of the following species: [table]

Polygonum persicaria = system: Polygonum persicaria
From the text: as §1

Galium aparine = system: Galium aparine
From the text: as §1

Chenopodium album = system: Chenopodium album
From the text: as §1

Pharbitis purpurea = system: Pharbitis purpurea
From the text: as §1

Cc1cnc(-n2ccc(C(F)(F)F)n2)nc1Oc1csc(C(F)(F)F)c1 [I 1.1, 5-methyl-2-[3-(trifluoromethyl)-1H-pyrazol-1-yl]-4-{[5-(trifluoromethyl)-3-thienyl]oxy}pyrimidine]
very good: post-emergence action against Amaranthus retroflexus (Amaranthus retroflexus) | post-emergence action against Polygonum persicaria (Polygonum persicaria) | post-emergence action against Galium aparine (Galium aparine) | post-emergence action against Chenopodium album (Chenopodium album) | post-emergence action against Pharbitis purpurea (Pharbitis purpurea)
